Target: Integrin alpha-L/beta-2 (Homo sapiens, UniProt P05107+P20701)
Assay: Inhibitory concentration against leukocyte function-associated antigen-1 in HSB-2 human lymphoblast and H1HeLa cell adhesion assay

Sequence of Integrin alpha-L/beta-2 (P20701 whole entry): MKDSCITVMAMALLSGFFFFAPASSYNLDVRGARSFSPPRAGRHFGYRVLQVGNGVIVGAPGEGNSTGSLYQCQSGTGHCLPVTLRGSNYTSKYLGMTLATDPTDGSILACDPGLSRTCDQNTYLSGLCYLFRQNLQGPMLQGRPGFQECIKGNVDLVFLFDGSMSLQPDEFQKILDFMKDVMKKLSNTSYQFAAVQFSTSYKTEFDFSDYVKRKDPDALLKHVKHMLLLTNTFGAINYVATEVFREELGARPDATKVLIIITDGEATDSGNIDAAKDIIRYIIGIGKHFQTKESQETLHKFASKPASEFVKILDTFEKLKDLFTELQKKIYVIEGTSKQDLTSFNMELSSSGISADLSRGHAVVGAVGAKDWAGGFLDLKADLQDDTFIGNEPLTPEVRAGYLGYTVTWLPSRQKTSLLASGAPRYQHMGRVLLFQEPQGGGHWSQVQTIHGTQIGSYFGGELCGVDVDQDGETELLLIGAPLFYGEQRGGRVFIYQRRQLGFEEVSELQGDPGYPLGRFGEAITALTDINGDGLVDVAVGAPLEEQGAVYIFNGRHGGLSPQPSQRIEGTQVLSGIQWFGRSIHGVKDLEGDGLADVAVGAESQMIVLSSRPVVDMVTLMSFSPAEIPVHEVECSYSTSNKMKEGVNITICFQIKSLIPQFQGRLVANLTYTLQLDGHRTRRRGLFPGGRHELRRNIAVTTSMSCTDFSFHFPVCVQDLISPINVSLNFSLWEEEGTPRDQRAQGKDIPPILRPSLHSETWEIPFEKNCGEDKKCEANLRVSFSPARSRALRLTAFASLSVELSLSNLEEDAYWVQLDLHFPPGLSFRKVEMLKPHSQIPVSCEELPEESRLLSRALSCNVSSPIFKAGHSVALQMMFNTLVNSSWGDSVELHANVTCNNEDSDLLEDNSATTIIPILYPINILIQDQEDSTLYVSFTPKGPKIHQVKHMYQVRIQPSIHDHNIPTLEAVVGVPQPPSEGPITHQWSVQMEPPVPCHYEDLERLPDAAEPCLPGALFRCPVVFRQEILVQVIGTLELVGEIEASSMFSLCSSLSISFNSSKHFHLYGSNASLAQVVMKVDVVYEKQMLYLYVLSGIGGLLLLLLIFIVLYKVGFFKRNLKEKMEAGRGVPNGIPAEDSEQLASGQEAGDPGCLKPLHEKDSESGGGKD
Sequence of Integrin alpha-L/beta-2 (P05107 whole entry H354Q): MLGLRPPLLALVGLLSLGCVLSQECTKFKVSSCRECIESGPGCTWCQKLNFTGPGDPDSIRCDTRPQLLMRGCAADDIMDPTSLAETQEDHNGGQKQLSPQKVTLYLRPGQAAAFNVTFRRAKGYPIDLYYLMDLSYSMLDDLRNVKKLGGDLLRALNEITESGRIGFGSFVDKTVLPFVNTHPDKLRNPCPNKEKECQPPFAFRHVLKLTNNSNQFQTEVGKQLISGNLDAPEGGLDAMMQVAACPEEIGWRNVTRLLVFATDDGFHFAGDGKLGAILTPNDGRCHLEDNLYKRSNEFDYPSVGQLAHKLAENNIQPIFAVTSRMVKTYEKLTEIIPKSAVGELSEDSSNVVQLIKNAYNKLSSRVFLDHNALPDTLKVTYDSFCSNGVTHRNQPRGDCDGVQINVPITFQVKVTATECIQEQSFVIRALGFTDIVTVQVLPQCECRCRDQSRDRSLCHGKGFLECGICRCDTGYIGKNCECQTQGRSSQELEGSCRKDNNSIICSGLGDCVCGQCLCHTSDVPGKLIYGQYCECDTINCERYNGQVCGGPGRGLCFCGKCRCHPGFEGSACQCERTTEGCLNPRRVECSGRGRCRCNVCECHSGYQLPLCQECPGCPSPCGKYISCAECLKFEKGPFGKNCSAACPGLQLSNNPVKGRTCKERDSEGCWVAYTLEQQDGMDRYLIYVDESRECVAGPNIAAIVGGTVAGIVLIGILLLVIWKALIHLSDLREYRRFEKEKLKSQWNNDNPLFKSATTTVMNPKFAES

Row | SMILES | IC50
1 | CN(Cc1cccc(-c2ccc(Br)cc2)c1)[C@H]1Cc2c(O)n(-c3cc(Cl)cc(Cl)c3)c(=O)n2C1 [(6S,7aS)-6-[(4''-Bromo-biphenyl-3-ylmethyl)-methyl-amino]-2-(3,5-dichloro-phenyl)-tetrahydro-pyrrolo[1,2-c]imidazole-1,3-dione] | 0.175 µM
2 | N#Cc1ccc(-c2cccc(CN[C@H]3Cc4c(O)n(-c5cc(Cl)cc(Cl)c5)c(=O)n4C3)c2)cc1 [3''-{[(6S,7aS)-2-(3,5-Dichloro-phenyl)-1,3-dioxo-hexahydro-pyrrolo[1,2-c]imidazol-6-ylamino]-methyl}-biphenyl-4-carbonitrile] | 0.175 µM

— BindingDB's records for doi:10.1016/j.bmcl.2004.12.007 (Cerep, 2005)
